Data on eight compounds can be found in patent US11661400B2, “NADPH oxidase inhibitors, pharmaceutical composition comprising the same, and application thereof” (TAIWANJ PHARMACEUTICALS CO., LTD., priority 2018, dated 2023).

The structures appear in SMILES notation. A value given as a limit tells only on which side of the number the result lay.

The target of one assay is T1, NOX1 (Homo sapiens, UniProt Q9Y5S8).
T1 construct: endogenous in cells; host or cells: HT29
T1 sequence (Q9Y5S8 1-564): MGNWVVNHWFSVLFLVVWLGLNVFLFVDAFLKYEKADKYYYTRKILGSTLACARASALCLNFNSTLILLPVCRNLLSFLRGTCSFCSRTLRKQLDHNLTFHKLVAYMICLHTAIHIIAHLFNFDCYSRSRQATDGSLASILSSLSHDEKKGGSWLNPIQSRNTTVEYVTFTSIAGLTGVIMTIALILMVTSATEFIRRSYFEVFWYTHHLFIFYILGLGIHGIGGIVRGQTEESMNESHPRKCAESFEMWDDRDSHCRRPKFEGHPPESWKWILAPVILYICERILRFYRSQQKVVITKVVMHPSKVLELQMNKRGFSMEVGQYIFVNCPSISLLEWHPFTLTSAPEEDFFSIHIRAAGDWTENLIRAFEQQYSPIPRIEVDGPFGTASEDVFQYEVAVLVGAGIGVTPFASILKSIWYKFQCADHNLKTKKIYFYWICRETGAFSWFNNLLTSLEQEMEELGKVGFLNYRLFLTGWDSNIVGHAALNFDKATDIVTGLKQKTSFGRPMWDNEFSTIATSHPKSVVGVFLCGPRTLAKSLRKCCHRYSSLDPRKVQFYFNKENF
T1 sequence (P13498 2-195 partner limits assumed): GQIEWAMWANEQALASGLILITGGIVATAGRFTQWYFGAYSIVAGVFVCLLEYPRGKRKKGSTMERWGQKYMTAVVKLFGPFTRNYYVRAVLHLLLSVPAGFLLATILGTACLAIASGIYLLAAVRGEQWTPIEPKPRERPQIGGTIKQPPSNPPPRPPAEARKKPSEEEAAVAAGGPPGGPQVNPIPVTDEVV
Put plainly: NOX1 HT29 cell-based assay (luminol/HRP luminescence). The following applies: HT29 cells, DMSO = 0%, GKT137831 = 100%; for inhibition at 0.1 µM / inhibition at 1 µM: HT-29. As to the method: NOX1 HT29 Cell-Based Assay:
HT29 cells were cultured in T75 flask (Corning) and when 70-80% confluence was reached, cells were trypsinized, harvested in HBSS and counted. 1-2×10^5 cells were dispensed into individual wells in 70 μl final volume (96-well plates, white Corning). Cells were treated for 30-60 mins at 37° C. with 10 μl of GKT137831, DMSO and test compounds from their respective assay plates. This will correspond to a final concentration of 100 nM, 1000 nM GKT137831 or test compounds, and 0.1% DMSO. 20 μL of a mixture containing 100 μM luminol plus 0.4 units of HRP (final concentration) was added. Luminescence was quantified using a SpectraMax i3 Multiplate reader (Molecular Devices, Sunnyvale, Calif., USA). As designed, compounds that inhibit NOX1 activity will reduce cellular ROS production, leading to reduced probe-ROS interactions and reduced well luminescence. Compounds were tested in duplicate at a concentration of 100 nM and 1000 nM. DMSO and GKT137831 wells were applied as negative and positive controls, and the activities measured were set to 0% and 100%, respectively.

In another assay the target is T2, NOX2 (Homo sapiens, UniProt P04839).
T2 construct: HL-60 cells, rich in NOX2 expression; endogenous in cells; host or cells: DMSO-differentiated HL-60
T2 sequence (P04839 2-570 limits assumed): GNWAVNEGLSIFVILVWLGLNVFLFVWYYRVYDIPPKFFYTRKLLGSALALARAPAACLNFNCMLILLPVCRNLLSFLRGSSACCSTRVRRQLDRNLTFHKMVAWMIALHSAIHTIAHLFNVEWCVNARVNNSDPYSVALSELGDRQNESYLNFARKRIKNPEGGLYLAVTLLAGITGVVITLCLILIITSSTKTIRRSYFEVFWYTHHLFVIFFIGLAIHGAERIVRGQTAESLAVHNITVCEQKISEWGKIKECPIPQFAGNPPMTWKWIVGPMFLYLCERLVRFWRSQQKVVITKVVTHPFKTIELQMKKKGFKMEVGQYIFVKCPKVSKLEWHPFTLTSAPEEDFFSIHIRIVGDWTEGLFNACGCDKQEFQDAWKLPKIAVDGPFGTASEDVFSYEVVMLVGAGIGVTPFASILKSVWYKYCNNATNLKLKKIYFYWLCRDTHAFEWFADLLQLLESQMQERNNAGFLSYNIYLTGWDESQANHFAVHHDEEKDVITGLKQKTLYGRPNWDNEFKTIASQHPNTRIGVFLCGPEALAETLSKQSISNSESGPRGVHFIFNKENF
T2 sequence (P13498 2-195 partner limits assumed): T1 sequence (P13498 2-195 partner limits assumed)
Nature of the assay: NOX2 HL60 cell-based assay (PMA oxidative burst, L012 chemiluminescence). The following applies: DMSO-differentiated HL-60 cells, PMA-stimulated; for inhibition at 1 µM: HL-60, 1000 nM; for inhibition at 0.1 µM: HL-60, 100 nM. The method, then:
NOX2 HL60 Cell-Based Assay:
HL-60 cells, rich in NOX2 expression, was stimulated to undergo oxidative burst by phorbol myristate acetate (PMA). The ROS produced during this process was measured using the O2^−-specific chemiluminescent probe L012. L012 was added to DMSO-differentiated HL-60 cell suspensions to a final concentration of 100 μM. Then, 80 μL aliquots of cell suspension (2.5×10^5 cells) were transferred to individual wells of a 96-well plate. Test compounds were directly added to the wells at the specified concentrations. Following a 30-60 mins incubation at 37° C. in the dark, the oxidative burst was initiated by the addition of 10 ng/mL PMA, and the chemiluminescence signal was recorded every 5 min over a period of 60 mins in a SpectraMax i3 Multiplate reader (Molecular Devices, Sunnyvale, Calif., USA). • NOX4 HEK293 Overexpression Cell-Based Assay: […]

A further assay deals with T3, NOX4 (Homo sapiens, UniProt Q9NPH5).
T3 construct: expressed in transfected cells
T3 sequence (Q9NPH5 1-578): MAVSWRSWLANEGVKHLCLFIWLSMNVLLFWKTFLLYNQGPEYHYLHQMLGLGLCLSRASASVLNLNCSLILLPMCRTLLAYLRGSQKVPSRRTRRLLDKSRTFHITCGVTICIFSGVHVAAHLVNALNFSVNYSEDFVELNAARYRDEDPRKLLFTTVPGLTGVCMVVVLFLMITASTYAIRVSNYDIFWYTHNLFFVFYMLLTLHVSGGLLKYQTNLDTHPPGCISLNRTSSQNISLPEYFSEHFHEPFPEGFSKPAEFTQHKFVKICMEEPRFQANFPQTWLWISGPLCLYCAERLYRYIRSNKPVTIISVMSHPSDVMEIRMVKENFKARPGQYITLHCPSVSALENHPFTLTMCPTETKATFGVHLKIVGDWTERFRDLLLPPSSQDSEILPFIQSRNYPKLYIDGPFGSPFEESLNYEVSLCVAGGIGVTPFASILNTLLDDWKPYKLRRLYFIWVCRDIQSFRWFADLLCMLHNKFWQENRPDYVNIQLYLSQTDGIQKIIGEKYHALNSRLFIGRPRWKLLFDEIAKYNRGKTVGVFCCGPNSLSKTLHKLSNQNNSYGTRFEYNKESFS
T3 sequence (P13498 2-195 partner limits assumed): T1 sequence (P13498 2-195 partner limits assumed)
Put plainly: NOX4 HEK293 overexpression cell-based assay (Amplex Red H2O2). The following applies: HEK293 cells stably overexpressing NOX4, DMSO = 0, GKT137831 = 100; for inhibition at 0.1 µM: HEK293, 100 nM; for inhibition at 1 µM: HEK293, 1000 nM. The method, then:
Extracellular H2O2 measurement using Amplex™ Red Hydrogen Peroxide/Peroxidase Assay Kit (Catalog number: A22188; Invitrogen, Carlsbad, Calif., USA) was used to detect extracellular H2O2 release by HEK293 cells stably overexpressing NOX4. NOX4 clonal cells in log-phase growth were trypsinized, washed, and dispersed thoroughly. Following trypsinization, the cells (3×10^4) were resuspended in 100 μL of 1× Krebs-Ringer phosphate glucose (KRPG) buffer containing various concentrations of GKT137831 or test compounds and incubated at 37° C. for 30 min. Cells were mixed with 100 μL of Amplex Red reagent solution containing 50 μM Amplex Red and 0.1 units/mL of HRP in KRPG buffer; each assay condition was evaluated induplicate. The samples were incubated at 37° C. for 90 mins in the dark, and then centrifuged at 2,500 g for 5 mins. The supernatants were loaded to a 96 well plate, and then measured using a SpectraMax i3 Multiplate reader (Molecular Devices, Sunnyvale, Calif., USA) at 530 nm excitation and 590 nm emission respectively. DMSO and GKT137831 wells were applied as negative and positive controls, and the activities measured were set to 0 and 100, respectively.

For `COc1cc2[nH]c(-c3ccccc3Cl)c(O)c(=O)c2cc1OC` [Compound 46], the “% Inhibition NOX1” value at NOX1 (100 nM) and on NOX1 (1000 nM) was “A (the percent of inhibition of NOX by the compounds is larger than or equals to 80%)” in each case. The entries for the “% Inhibition NOX2” value at NOX2 (100 nM) and on NOX2 (1000 nM) were “D (the percent of inhibition of NOX by the compounds is smaller than or equals to 19% o)” and “A (the percent of inhibition of NOX by the compounds is larger than or equals to 80%)”, respectively. Also, the “% Inhibition NOX4” value at NOX4 (100 nM) was “B (the percent of inhibition of NOX by the compounds ranges from 50% o to 79% o)”; at NOX4 (1000 nM, 1 µM), “B (the percent of inhibition of NOX by the compounds ranges from 50% o to 79% o)”.
Regarding `COc1cc2[nH]c(-c3ccccc3OC)c(O)c(=O)c2cc1OC.Cl` [Compound 51], the inhibition at 0.1 µM against NOX1 (100 nM) was ≥ 80%; against NOX4, ≤ 19%. In addition, the inhibition at 1 µM against NOX1 (1000 nM) and on NOX2 was ≥ 80% throughout. In addition, the “% Inhibition NOX2” value on NOX2 (100 nM) is “C (the percent of inhibition of NOX by the compounds ranges from 2000 to 49%)”. The “% Inhibition NOX4” value at NOX4 (1000 nM) was “B (the percent of inhibition of NOX by the compounds ranges from 50% o to 79% o)”.
For `COc1ccc(-c2c(O)c(=O)c3ccccc3n2C)cc1` [Compound 39], the inhibition at 0.1 µM against NOX1 (100 nM), on NOX2 and on NOX4 was ≤ 19% throughout. The values for the inhibition at 1 µM on NOX1 (1000 nM), on NOX2 and against NOX4 were ≥ 80%, ≤ 19% and 50 to 79%, respectively.
Turning to `COc1cc2[nH]c(-c3ccc(F)cc3)c(O)c(=O)c2cc1OC` [Compound 13], the inhibition at 0.1 µM on NOX1 (100 nM) is ≥ 80%; against NOX2 it was ≤ 19%. For the same compound, the inhibition at 1 µM on NOX1 (1000 nM), against NOX2 and at NOX4 was ≥ 80% throughout. Besides, the “% Inhibition NOX4” value at NOX4 (100 nM) is reported as “C (the percent of inhibition of NOX by the compounds ranges from 2000 to 49%)”.
On to `COc1cc2c(cc1OC)C(=O)NCC(c1ccccc1Cl)=N2` [Compound 35, 2-(2-chlorophenyl)-7,8-dimethoxy-3,4-dihydro-5H-benzo[e][1,4] diazepin-5-one], for which the inhibition at 0.1 µM on NOX1 (100 nM), against NOX2 and at NOX4 was ≤ 19% in each case. Moreover, the inhibition at 1 µM at NOX1 (1000 nM), against NOX2 and against NOX4 was ≤ 19% each time.
Turning to `COc1cc2[nH]c(-c3cccs3)c(O)c(=O)c2cc1OC` [Compound 7], the inhibition at 0.1 µM against NOX1 (100 nM) is ≥ 80%; against NOX2 it was ≤ 19%; at NOX4, 50 to 79%. In addition, the inhibition at 1 µM against NOX1 (1000 nM) is ≥ 80%; against NOX2, 50 to 79%; on NOX4, ≥ 80%.
Take `COc1cc2[nH]c(-c3ccccc3C)c(O)c(=O)c2cc1OC` [Compound 16]: the figures for the inhibition at 0.1 µM against NOX1 (100 nM) and against NOX4 were ≥ 80% and 50 to 79%, respectively. Also, the inhibition at 1 µM at NOX1 (1000 nM) is ≥ 80%; on NOX2, ≥ 80%; on NOX4, 50 to 79%. Moreover, on NOX2 (100 nM), the “% Inhibition NOX2” value is on record as “C (the percent of inhibition of NOX by the compounds ranges from 2000 to 49%)”.
In the case of `COc1ccc(C(=O)COC(=O)c2ccc3c(=O)c(O)c(-c4ccc(OC)cc4)[nH]c3c2)cc1` [Compound 32, 2-(4-methoxyphenyl)-2-oxoethyl 3-hydroxy-2-(4-methoxyphenyl)-4-oxo-1,4-dihydroquinoline-7-carboxylate 2,2,2-trifluoroacetate], the inhibition at 0.1 µM at NOX1 (100 nM) and against NOX4 was ≤ 19% throughout. The inhibition at 1 µM on NOX1 (1000 nM) was in the range of 50 to 79%. Besides, the “% Inhibition NOX2” value on NOX2 (100 nM) and at NOX2 (1000 nM) was “C (the percent of inhibition of NOX by the compounds ranges from 2000 to 49%)” throughout. Moreover, at NOX4 (1000 nM), the “% Inhibition NOX4” value is “C (the percent of inhibition of NOX by the compounds ranges from 2000 to 49%)”.
